Assay results: ChEMBL document CHEMBL1629562, “Activity of indenoisoquinolines against African trypanosomes” (Antimicrob Agents Chemother, 2009)
Active and inactive are the calls of the source. The rule behind the calls is not given here.

Experiments:
[1] = test system: Trypanosoma brucei brucei; assay: Trypanocidal activity against Trypanosoma brucei brucei 427 bloodstream forms infected in mouse L1210 cells after 48 hrs; assay type: functional, organism-based; conditions: Trypanosoma brucei, 427, L1210, 48 h
L1210 = assay: Cytotoxicity against mouse L1210 cells; assay type: cell-based
[2] = Therapeutic index, EC50 for mouse L1210 cells to EC50 for bloodstream-form Trypanosoma brucei brucei 427; assay type: cell-based; conditions: read-out: Ratio EC50
[3] = test system: Trypanosoma brucei brucei; assay: Inhibition of Trypanosoma brucei brucei 427 bloodstream form DNA synthesis assessed as inhibition of [3H]thymidine incorporation at 5 uM by liquid scintillation counting; assay type: functional
[4] = test system: Trypanosoma brucei brucei; assay: Inhibition of Trypanosoma brucei brucei 427 bloodstream forms topoisomerase 1B in assessed as formation of enzyme-DNA cleavable complex at 5 uM
[5] = test system: Trypanosoma brucei brucei; assay: Antitrypanosomal activity against Trypanosoma brucei brucei 427 bloodstream forms infected in CD1 mouse assessed as reduction in parasite load at 50 mg/kg, ip after 4 days; assay type: functional, organism-based; parameters: dose 50 mg/kg
[6] = test system: Trypanosoma brucei brucei; assay: Inhibition of Trypanosoma brucei brucei 427 bloodstream form DNA synthesis assessed as inhibition of [3H]thymidine incorporation at 10 uM by liquid scintillation counting; assay type: functional
[7] = test system: Trypanosoma brucei brucei; assay: Inhibition of Trypanosoma brucei brucei 427 bloodstream forms topoisomerase 1B in assessed as formation of enzyme-DNA cleavable complex at 10 uM

| Structure (SMILES) | EC50 [1] | EC50 (L1210) | selectivity ratio [2] | inhibition at 5 µM [3] | inhibition [4] | other results |
| --- | --- | --- | --- | --- | --- | --- |
| COc1cc2c3c(n(CCCN)c(=O)c2cc1OC)-c1ccc(C#N)cc1C3=O | 350 nM | 970 nM | 2.8 | 69% | 3% | – |
| COc1cc2c3c(n(CCCNCCCNCCCNCCCN)c(=O)c2cc1OC)-c1cc2c(cc1C3=O)OCO2 | 1500 nM | 510 nM | 1.9 | 34% | 10% | – |
| COc1ccc2c(c1)C(=O)c1c-2n(CCCN)c(=O)c2ccccc12 | 140 nM | – | – | – | – | – |
| COc1cc2c3c(n(CCCNCCNCCCN)c(=O)c2cc1OC)-c1cc2c(cc1C3=O)OCO2 | 650 nM | 280 nM | 4 | 44% | 11% | – |
| COc1cc2c3c(n(CCCNCCCNCCN)c(=O)c2cc1OC)-c1cc2c(cc1C3=O)OCO2 | 970 nM | – | – | – | – | – |
| COc1cc2c3c(n(CCCNCCCCN)c(=O)c2cc1OC)-c1cc2c(cc1C3=O)OCO2 | 990 nM | 250 nM | 4.3 | 56% | 7% | – |
| NCCCn1c2c(c3ccccc3c1=O)C(=O)c1ccccc1-2 | 380 nM | – | – | – | – | – |
| NCCCn1c2c(c3ccc(Br)cc3c1=O)C(=O)c1cc3c(cc1-2)OCO3 | 160 nM | – | – | – | – | – |
| NCCCn1c2c(c3ccc([N+](=O)[O-])cc3c1=O)C(=O)c1cc(F)ccc1-2 | 80 nM | – | – | – | – | – |
| COc1cc2c3c(n(CCCN)c(=O)c2cc1OC)-c1cc2c(cc1C3=O)OCO2 | 120 nM | 420 nM | 2.1 | 61% | 4% | – |
| COc1cc2c(cc1OC)-c1c(c3ccc([N+](=O)[O-])cc3c(=O)n1CCCN)C2=O | 140 nM | – | – | – | – | – |
| NCCCn1c2c(c3ccccc3c1=O)C(=O)c1cc3c(cc1-2)OCO3 | 60 nM | – | – | – | – | – |
| COc1cc2c3c(n(CCCn4ccnc4)c(=O)c2cc1OC)-c1ccccc1C3=O | 350 nM | – | – | – | – | – |
| COc1ccc2c(c1)C(=O)c1c-2n(CCCN)c(=O)c2cc(OC)c(OC)cc12 | 50 nM | 4300 nM | 5.6 | 68% | 3% | inhibition [5]: Active |
| CC[C@@]1(O)C(=O)OCc2c1cc1n(c2=O)Cc2cc3ccccc3nc2-1 [CAMPTOTHECIN] | – | – | – | – | – | inhibition at 10 µM [6]: 27%; inhibition [7]: 61% |
| O=C1c2ccccc2-c2c1c1ccccc1c(=O)n2CCCn1ccnc1 | 4200 nM | – | – | – | – | – |
| NCCCn1c2c(c3ccc([N+](=O)[O-])cc3c1=O)C(=O)c1cc3c(cc1-2)OCO3 | 50 nM | – | – | – | – | – |
| COc1cc2c3c(n(CCCN)c(=O)c2cc1OC)-c1ccccc1C3=O | 130 nM | 2800 nM | 4.3 | 67% | 4% | – |
| NCCCn1c2c(c3ccc([N+](=O)[O-])cc3c1=O)C(=O)c1ccccc1-2 | 140 nM | – | – | – | – | – |
| COC(=O)c1ccc2c(c1)C(=O)c1c-2n(CCCN)c(=O)c2cc(OC)c(OC)cc12 | 170 nM | 2600 nM | 2.5 | 66% | 12% | – |
| COc1ccc2c(c1)C(=O)c1c-2n(CCCN)c(=O)c2cc([N+](=O)[O-])ccc12 | 60 nM | – | – | – | – | – |
| COc1cc2c3c(n(CCCn4ccnc4)c(=O)c2cc1OC)-c1cc2c(cc1C3=O)OCO2 [INDIMITECAN] | 60 nM | – | – | – | – | – |
| O=C1c2ccccc2-c2c1c1ccc([N+](=O)[O-])cc1c(=O)n2CCCn1ccnc1 | 200 nM | – | – | – | – | – |
